# Measurements taken from patent US20150376225A1, “NOVEL COMPOUNDS OF 11BETA-HYDROXY-STEROIDS FOR USE IN MITOCHONDRIA BIOGENESIS AND DISEASES ASSOCIATED WITH MITOCHONDRIAL DYSFUNCTION OR DEPLETION” (SPHAERA PHARMA PVTD. LTD., priority 2013, published 2015).
# System: AMPK
# Experiment: AMPK activation, cell based ELISA in Hep G2 cells
# Conditions: 1 h incubation, DMSO control as 100%
# Method: AMPK Activation Protocol:
# AMPK activation potential of the compounds was evaluated using cell based ELISA.
# Hepatoma (Hep G2) liver cells were maintained in a T 75 culture flask-containing 25 mM DMEM+10% fetal calf serum. The cells were maintained in a T 75 culture flask-containing medium (DMEM+10% fetal calf serum). On reaching a confluence of 70 to 80%, the cells were seeded in a 96 well plate at a density of 40,000 cells per well in 25 mM DMEM+10% FCS medium. The plates were then incubated at 37° C. with 5% CO2 for 24 hours. Various concentrations of drugs were prepared in DMSO and diluted to required concentration with the medium and incubated at 37° C. with 5% CO2 for 30 min and 1 h for Epicatechin analogs and 11-BHP analogs respectively. Metformin was used as positive control. Cells were fixed with 4% formaldehyde for 30 minutes at room temperature and washed three times with PBS containing 0.1% Triton X-100. Endogenous peroxidase was quenched with 1% H2O2 in PBS-T (0.1% Tween 20) for 30 minutes and washed three times in PBS-T. Cells were blocked with 1% BSA in PBS-T for 1 hour.
row,Structure (SMILES),% activation pAMPK at 1 nM
1,"CC(=O)[C@H]1CCC2C3CC=C4C[C@@H](O)CC[C@]4(C)C3[C@@H](O)C[C@@]21C (stereo partly drawn) [Compound 1016, 1-((3S,10R,11S,13S,17S)-3,11-dihydroxy-10,13-dimethyl-2,3,4,7,8,9,10,11,12,13,14,15,16,17-tetradecahydro-1H-cyclopenta[a]phenanthren-17-yl)ethan-1-one]",104%
2,"C[C@]12CC[C@H](O)CC1=CCC1C2[C@@H](O)C[C@@]2(C)C1CC[C@@H]2O (stereo partly drawn) [Compound 1017, (3S,10R,11S,13S,17S)-10,13-dimethyl-2,3,4,7,8,9,10,11,12,13,14,15,16,17-tetradecahydro-1H-cyclopenta[a]phenanthrene-3,11,17-triol]",97%
3,"C[C@]12CCC(=O)C=C1CCC1C2[C@@H](O)C[C@@]2(C)C1CC[C@@H]2O (stereo partly drawn) [Compound 1018, (10R,11S,13S,17S)-11,17-dihydroxy-10,13-dimethyl-1,2,6,7,8,9,10,11,12,13,14,15,16,17-tetradecahydro-3H-cyclopenta[a]phenanthren-3-one]",106%
4,"C[C@]12CCC(=O)C=C1CCC1C2[C@@H](O)C[C@]2(C)C(=O)CCC12 (stereo partly drawn) [Compound 1019, (10R,11S,13S)-11-hydroxy-10,13-dimethyl-1,6,7,8,9,10,11,12,13,14,15,16-dodecahydro-3H-cyclopenta[a]phenanthrene-3,17(2H)-dione]",103%
5,"C[C@]12C[C@H](O)C3C(CCC4=CC(=O)CC[C@@]43C)C1CCC2C(=O)O (stereo partly drawn) [Compound 1020, (10R,11S,13S)-11-hydroxy-10,13-dimethyl-3-oxo-2,3,6,7,8,9,10,11,12,13,14,15,16,17-tetradecahydro-1H-cyclopenta[a]phenanthrene-17-carboxylic acid]",132%
6,"CC(O)C1CCC2C3CC=C4CC5(CC[C@]4(C)C3[C@@H](O)C[C@]12C)OCCO5 (stereo partly drawn) [Compound 1021, (10R,11S,13S)-17-(1-hydroxyethyl)-10,13-dimethyl-1,2,4,7,8,9,10,11,12,13,14,15,16,17-tetradecahydrospiro[cyclopenta[a]phenanthrene-3,2′-[1,3]dioxolan]-11-ol]",129%
7,"C[C@]12CC/C(=N/O)C=C1CCC1C2[C@@H](O)C[C@]2(C)/C(=N/O)CCC12 (stereo partly drawn) [Compound 1022, (3Z,10R,11S,13S,17E)-11-hydroxy-10,13-dimethyl-1,6,7,8,9,10,11,12,13,14,15,16-dodecahydro-3H-cyclopenta[a]phenanthrene-3,17(2H)-dione dioxime]",129%
8,"C[C@]12CCC(=O)C=C1CCC1C2[C@@H](O)C[C@@]2(C)C1CC[C@]2(O)C(=O)O (stereo partly drawn) [Compound 1023, (10R,11S,13S,17R)-11,17-dihydroxy-10,13-dimethyl-3-oxo-2,3,6,7,8,9,10,11,12,13,14,15,16,17-tetradecahydro-1H-cyclopenta[a]phenanthrene-17-carboxylic acid]",127%
9,"C[C@]12CCC(=O)C=C1CCC1C2[C@@H](O)C[C@]2(C)/C(=N/O)CCC12 (stereo partly drawn) [Compound 1024, (10R,11S,13S,E)-11-hydroxy-17-(hydroxyimino)-10,13-dimethyl-1,2,6,7,8,9,10,11,12,13,14,15,16,17-tetradecahydro-3H-cyclopenta[a]phenanthren-3-one]",133%
10,"CC(=O)[C@H]1CCC2C3CCC4=CC(=O)CC[C@]4(C)C3[C@@H](O)C[C@@]21C (stereo partly drawn) [Compound 1025, (10R,11S,13S,17S)-17-acetyl-11-hydroxy-10,13-dimethyl-1,2,6,7,8,9,10,11,12,13,14,15,16,17-tetradecahydro-3H-cyclopenta[a]phenanthren-3-one]",118%
11,"C[C@]12CCC(=O)C=C1CCC1C2[C@@H](O)C[C@@]2(C)C1CC[C@@]21OCC1=O (stereo partly drawn) [Compound 1028, (10R,11S,13S,17R)-11-hydroxy-10,13-dimethyl-1,6,7,8,9,10,11,12,13,14,15,16-dodecahydrospiro[cyclopenta[a]phenanthrene-17,2′-oxetane]-3,3′(2H)-dione]",103%
12,"CC(=O)C1CCC2C3CC=C4CC5(CC[C@]4(C)C3[C@@H](O)C[C@]12C)OCCO5 (stereo partly drawn) [Compound 1029, 1-((10R,11S,13S)-11-hydroxy-10,13-dimethyl-1,2,4,7,8,9,10,11,12,13,14,15,16,17-tetradecahydrospiro[cyclopenta[a]phenan-threne-3,2′-[1,3]dioxolan]-17-yl)ethan-1-one]",105%
13,"CN(C)C(=O)C1CCC2C3CCC4=CC(=O)CC[C@]4(C)C3[C@@H](O)C[C@]12C (stereo partly drawn) [Compound 1030, (10R,11S,13S)-11-hydroxy-N,N,10,13-tetramethyl-3-oxo-2,3,6,7,8,9,10,11,12,13,14,15,16,17-tetradecahydro-1H-cyclopenta[a]phenanthrene-17-carboxamide]",105%
14,"C/C(=N/O)[C@H]1CCC2C3CCC4=C/C(=N\O)CC[C@]4(C)C3[C@@H](O)C[C@@]21C (stereo partly drawn) [Compound 1031, (10R,11S,13S,17S,Z)-11-hydroxy-17-((Z)-1-(hydroxyimino)ethyl)-10,13-dimethyl-1,2,6,7,8,9,10,11,12,13,14,15,16,17-tetradecahydro-3H-cyclopenta[a]phenanthren-3-one oxime]",109%
15,"CN(C)C(=O)C1CCC2C3CCC4CC(=O)CC[C@]4(C)C3[C@@H](O)C[C@]12C (stereo partly drawn) [Compound 1033, (10S,11S,13S)-11-hydroxy-N,N,10,13-tetramethyl-3-oxohexadecahydro-1H-cyclopenta[a]phenanthrene-17-carboxamide]",107%
16,"C[C@]12CCC(=O)CC1CCC1C2[C@@H](O)C[C@]2(C)C(=O)CCC12 (stereo partly drawn) [Compound 1034, (10S,11S,13S)-11-hydroxy-10,13-dimethyltetradecahydro-3H-cyclopenta[a]phenanthrene-3,17(2H)-dione]",104%
17,"CC(=O)[C@H]1CCC2C3CCC4=CC(=O)CC[C@]4(C)C3[C@@](C)(O)C[C@@]21C (stereo partly drawn) [Compound 1035, (10R,11S,13S,17S)-17-acetyl-11-hydroxy-10,11,13-trimethyl-1,2,6,7,8,9,10,11,12,13,14,15,16,17-tetradecahydro-3H-cyclopenta[a]phenanthren-3-one]",102%
18,"CC(O)C1CCC2C3CC=C4C[C@@H](O)CC[C@]4(C)C3[C@@H](O)C[C@]12C (stereo partly drawn) [Compound 1036, (3S,10R,11S,13S)-17-(1-hydroxyethyl)-10,13-dimethyl-2,3,4,7,8,9,10,11,12,13,14,15,16,17-tetradecahydro-1H-cyclopenta[a]phenanthrene-3,11-diol]",102%
19,"CC(O)[C@H]1CC[C@H]2[C@@H]3CCC4=C[C@@H](O)CC[C@]4(C)[C@H]3[C@@H](O)C[C@]12C (stereo partly drawn) [Compound 1037, (3S,8S,9S,10R,11S,13S,14S,17S)-17-(1-hydroxyethyl)-10,13-dimethyl-2,3,6,7,8,9,10,11,12,13,14,15,16,17-tetradecahydro-1H-cyclopenta[a]phenanthrene-3,11-diol]",95%
20,"CO[C@H]1CC[C@@]2(C)C(=CCC3C2[C@@H](O)C[C@@]2(C)C3CC[C@@H]2C(C)=O)C1 (stereo partly drawn) [Compound 1038, 1-((3S,10R,11S,13S,17S)-11-hydroxy-3-methoxy-10,13-dimethyl-2,3,4,7,8,9,10,11,12,13,14,15,16,17-tetradecahydro-1H-cyclopenta[a]phenanthren-17-yl)ethan-1-one]",103%
21,"CC(O)C1CCC2C3CCC4CC5(CC[C@]4(C)C3[C@@H](O)C[C@]12C)OCCO5 (stereo partly drawn) [Compound 1039, (10S,11S,13S)-17-(1-hydroxyethyl)-10,13-dimethylhexadecahydrospiro[cyclopenta[a]phenanthrene-3,2′-[1,3]dioxolan]-11-ol]",100%
22,"CC(O)[C@H]1CCC2C3CCC4C[C@@H](O)CC[C@]4(C)C3[C@@H](O)C[C@@]21C (stereo partly drawn) [Compound 1040, (3S,10S,11S,13S,17S)-17-(1-hydroxyethyl)-10,13-dimethylhexadecahydro-1H-cyclopenta[a]phenanthrene-3,11-diol]",95%
23,"CC[C@H]1CCC2C3CC=C4C[C@@H](O)CC[C@]4(C)C3[C@@H](O)C[C@@]21C (stereo partly drawn) [Compound 1041, (3S,10R,11S,13R,17S)-17-ethyl-10,13-dimethyl-2,3,4,7,8,9,10,11,12,13,14,15,16,17-tetradecahydro-1H-cyclopenta[a]phenanthrene-3,11-diol]",95%
24,"CC(=O)[C@H]1CCC2C3CCC4C[C@@H](O)CC[C@]4(C)C3[C@@H](O)C[C@@]21C (stereo partly drawn) [Compound 1042, 1-((3S,10S,11S,13S,17S)-3,11-dihydroxy-10,13-dimethylhexadecahydro-1H-cyclopenta[a]phenanthren-17-yl)ethan-1-one]",96%
25,"[2H][C@]1(O)CC[C@@]2(C)C(=CCC3C2[C@@H](O)C[C@@]2(C)C3CC[C@@H]2C(C)=O)C1 (stereo partly drawn) [Compound 1045, 1-((3S,10R,11S,13S,17S)-3,11-dihydroxy-10,13-dimethyl-2,3,4,7,8,9,10,11,12,13,14,15,16,17-tetradecahydro-1H-cyclopenta[a]phenanthren-17-yl-3-d)ethan-1-one]",116%
26,"CC(=O)[C@H]1CCC2C3CC=C4C[C@@H](O)CC[C@]4(C)C3[C@@](C)(O)C[C@@]21C (stereo partly drawn) [Compound 1047, 1-((3S,10R,11S,13S,17S)-3,11-dihydroxy-10,11,13-trimethyl-2,3,4,7,8,9,10,11,12,13,14,15,16,17-tetradecahydro-1H-cyclopenta[a]phenanthren-17-yl)ethan-1-one]",119%
